Here are results for 19 compounds from US12378211B2, “Carbonic anhydrase inhibitors and antibiotics against multidrug resistant bacteria” (Purdue Research Foundation, priority 2018, dated 2025).

≈ marks a conversion by molar mass, not a printed value.

What all share (experiment): MIC, broth microdilution in TSB
Holding throughout (assay type): cell-based
For orientation: Broth dilution looks for growth in wells or tubes with falling amounts of substance.

The test system of experiment [1] is Enterococcus fecalis Strain MMH594-NR31975. The conditions noted are these: TSB, Table 7; for MIC: Enterococcus, read-out: MIC in TSB. The protocol: (§1) The minimum inhibitory concentrations (MICs) of the compounds and control drugs were determined using the broth microdilution method, according to guidelines outlined by the Clinical and Laboratory Standards Institute (CLSI). Enterococci strains were grown aerobically overnight on tryptone soya agar plates at 37° C., afterwards a bacterial solution equivalent to 0.5 McFarland standard was prepared and diluted in tryptone soy broth (TSB) to achieve a bacterial concentration of about 5×10^5 CFU/mL and seeded in 96-well well plates. Compounds and control drugs were added in the first row of the 96-well plates and serially diluted along the plates. Plates were then incubated aerobically at 37° C. for 18-20 hours. MICs reported in Table 1 are the minimum concentration of the compounds/control drugs that could inhibit completely the visual growth of the bacteria.

Experiment [2] has as its system Enterococcus faecium Patient #2-1-NR-31909. Conditions: TSB, Table 7; for MIC: Enterococcus faecium, read-out: MIC in TSB. The protocol:
as §1

In experiment [3] the test system is Enterococcus fecalis Strain SF 24397 NR31970. Conditions: TSB, Table 7; for MIC: Enterococcus, read-out: MIC in TSB. The protocol: as §1
Experiment [4] deals with Enterococcus faecalis—S613 HM-334. Conditions: TSB, Table 7; for MIC: Enterococcus, read-out: MIC in TSB. The procedure: as §1
In experiment [5] the test system is Enterococcus faecium Patient #3-1 NR-31912. The conditions noted are these: TSB, Table 7; for MIC: Enterococcus faecium, read-out: MIC in TSB. The protocol: as §1
Experiment [6] has as its system Enterococcus fecalis Strain SF24413 NR31971. Conditions: TSB, Table 7; for MIC: Enterococcus, read-out: MIC in TSB. The protocol: as §1
Experiment [7] has as its system Enterococcus faecium E417-HM-965. Conditions: TSB, Table 7; for MIC: Enterococcus faecium, E417HM965, read-out: MIC in TSB. The protocol: as §1
Experiment [8] relates to Enterococcus fecalis Strain SF 28073-NR31972. Conditions: TSB, Table 7; for MIC: Enterococcus, read-out: MIC in TSB. The procedure: as §1

Take “3-cyclohexyl-N-(5-sulfamoyl-1,3,4-thiadiazol-2-yl) propenamide [CAI0019]”: the “MIC in TSB” value is 0.015 µg/mL in experiment [1]; 3 ng/mL in experiment [2]; 0.015 µg/mL in experiment [3]; 7 ng/mL in experiment [4]; 7 ng/mL in experiment [5]; 0.015 µg/mL in experiment [6]. For the same compound, the “MIC in TSB” value is 7 ng/mL in experiment [7] and 0.015 µg/mL in experiment [8].
A word on the MIC: it is the smallest concentration in the dilution series that meets the test's criterion for growth inhibition. As to `NS(=O)(=O)c1nnc(NCc2ccc(Cl)cc2)s1` [CAI0001, 5-((4-chlorobenzyl)amino)-1,3,4-thiadiazole-2-sulfonamide], the MIC is 8 µg/mL (≈ 26.2 µM) in experiment [2], > 64 µg/mL in experiment [5], > 64 µg/mL in experiment [7] and > 64 µg/mL in experiment [8].
With `NS(=O)(=O)c1nnc(NCc2ccccc2Cl)s1` [CAI0002, 5-((2-chlorobenzyl)amino)-1,3,4-thiadiazole-2-sulfonamide], the MIC in experiment [2], in experiment [5], in experiment [7] and in experiment [8] was > 64 µg/mL in each case.
For `NS(=O)(=O)c1nnc(NCc2ccc(Br)cc2)s1` [CAI0003, 5-((4-bromobenzyl)amino)-1,3,4-thiadiazole-2-sulfonamide], the MIC in experiment [2], in experiment [5], in experiment [7] and in experiment [8] was > 64 µg/mL each time.
On to `NS(=O)(=O)c1nnc(NCc2cccc(Br)c2)s1` [CAI0004, 5-((3-bromobenzyl)amino)-1,3,4-thiadiazole-2-sulfonamide], for which the MIC in experiment [2] amounted to 8 µg/mL (≈ 22.9 µM); in experiment [5] it was 8 µg/mL (≈ 22.9 µM); in experiment [7] it was 16 µg/mL (≈ 45.8 µM); in experiment [8], 8 µg/mL (≈ 22.9 µM).
In the case of `NS(=O)(=O)c1nnc(NCc2ccccc2)s1` [CAI0005, 5-(benzylamino)-1,3,4-thiadiazole-2-sulfonamide], the MIC in experiment [2], in experiment [7] and in experiment [8] was > 64 µg/mL throughout.
Take `NS(=O)(=O)c1nnc(NCc2ccccc2C(F)(F)F)s1` [CAI0006, 5-((2-(trifluoromethyl)benzyl)amino)-1,3,4-thiadiazole-2-sulfonamide]: the minimum inhibitory concentration (MIC) in experiment [2], in experiment [7] and in experiment [8] was > 64 µg/mL throughout.
On to `NS(=O)(=O)c1nnc(NCc2cccc(C(F)(F)F)c2)s1` [CAI0007, 5-((3-(trifluoromethyl)benzyl)amino)-1,3,4-thiadiazole-2-sulfonamide], for which the MIC in experiment [2] was 8 µg/mL (≈ 23.6 µM); in experiment [5] it was 8 µg/mL (≈ 23.6 µM); in experiment [7], 8 µg/mL (≈ 23.6 µM); in experiment [8], 4 µg/mL (≈ 11.8 µM).
For `NS(=O)(=O)c1nnc(NCc2ccc(C(F)(F)F)cc2)s1` [CAI0008, 5-((4-(trifluoromethyl)benzyl)amino)-1,3,4-thiadiazole-2-sulfonamide], the MIC in experiment [2], in experiment [5], in experiment [7] and in experiment [8] was > 64 µg/mL throughout.
Take `NS(=O)(=O)c1nnc(NC(=O)C2CCC2)s1` [CAI0018, N-(5-Sulfamoyl-1,3,4-thiadiazol-2-yl)cyclobutanecarboxamide]: the MIC turned out to be 0.5 µg/mL (≈ 1.91 µM) in experiment [1]; 0.25 µg/mL (≈ 0.953 µM) in experiment [2]; 1 µg/mL (≈ 3.81 µM) in experiment [3]; 1 µg/mL (≈ 3.81 µM) in experiment [4]; 0.5 µg/mL (≈ 1.91 µM) in experiment [5]; 1 µg/mL (≈ 3.81 µM) in experiment [6]. In addition, the MIC is 0.5 µg/mL (≈ 1.91 µM) in experiment [7] and 1 µg/mL (≈ 3.81 µM) in experiment [8].
With `NS(=O)(=O)c1nnc(NC(=O)C2CC2)s1` [CAI0020, N-(5-Sulfamoyl-1,3,4-thiadiazol-2-yl)cyclopropanecarboxamide], the MIC was found to be 0.007 µg/mL (≈ 0.0282 µM) in experiment [1]; 0.001 µg/mL (≈ 0.00403 µM) in experiment [2]; 0.015 µg/mL (≈ 0.0604 µM) in experiment [3]; 0.007 µg/mL (≈ 0.0282 µM) in experiment [4]; 0.007 µg/mL (≈ 0.0282 µM) in experiment [5]; 0.015 µg/mL (≈ 0.0604 µM) in experiment [6]. In addition, the MIC in experiment [7] came to 0.007 µg/mL (≈ 0.0282 µM); in experiment [8], 0.003 µg/mL (≈ 0.0121 µM).
On to `NS(=O)(=O)c1nnc(NC(=O)CC2CCCC2)s1` [CAI0021, 2-Cyclopentyl-N-(5-sulfamoyl-1,3,4-thiadiazol-2-yl)acetamide], for which the MIC was 0.03 µg/mL (≈ 0.103 µM) in experiment [1]; 0.003 µg/mL (≈ 0.0103 µM) in experiment [2]; 0.03 µg/mL (≈ 0.103 µM) in experiment [3]; 0.03 µg/mL (≈ 0.103 µM) in experiment [4]; 0.03 µg/mL (≈ 0.103 µM) in experiment [5]; 0.06 µg/mL (≈ 0.207 µM) in experiment [6]. Also, the MIC in experiment [7] was 0.06 µg/mL (≈ 0.207 µM); in experiment [8], 0.03 µg/mL (≈ 0.103 µM).
On to `NS(=O)(=O)c1nnc(NC(=O)C2CCCCC2)s1` [CAI0022, N-(5-Sulfamoyl-1,3,4-thiadiazol-2-yl)cyclohexanecarboxamide], for which the MIC in experiment [1] amounted to 0.25 µg/mL (≈ 0.861 µM); in experiment [2] it was 0.015 µg/mL (≈ 0.0517 µM); in experiment [3] it was 0.25 µg/mL (≈ 0.861 µM); in experiment [4], 0.25 µg/mL (≈ 0.861 µM); in experiment [5], 0.125 µg/mL (≈ 0.43 µM); in experiment [6], 0.5 µg/mL (≈ 1.72 µM). Also, the MIC in experiment [7] and in experiment [8] was 0.25 µg/mL (≈ 0.861 µM) each time.
Consider `NS(=O)(=O)c1nnc(NC(=O)C2CCCC2)s1` [CAI0023, N-(5-Sulfamoyl-1,3,4-thiadiazol-2-yl)cyclopentanecarboxamide], for which the MIC is 0.5 µg/mL (≈ 1.81 µM) in experiment [1]; 0.06 µg/mL (≈ 0.217 µM) in experiment [2]; 0.5 µg/mL (≈ 1.81 µM) in experiment [3]; 0.5 µg/mL (≈ 1.81 µM) in experiment [4]; 0.25 µg/mL (≈ 0.905 µM) in experiment [5]; 0.5 µg/mL (≈ 1.81 µM) in experiment [6]. For the same compound, the MIC in experiment [7] was found to be 0.25 µg/mL (≈ 0.905 µM); in experiment [8], 1 µg/mL (≈ 3.62 µM).
Turning to `CC(=O)Nc1nnc(S(C)(=O)=O)s1` [CAI0025, N-(5-(Methylsulfonyl)-1,3,4-thiadiazol-2-yl)acetamide], the MIC in experiment [1], in experiment [2], in experiment [3], in experiment [4], in experiment [5] and in experiment [6] was > 128 µg/mL in each case. Besides, the MIC in experiment [7] and in experiment [8] was > 128 µg/mL throughout.
In the case of `CC(C)CC(=O)Nc1nnc(S(N)(=O)=O)s1` [CAI0026, 3-Methyl-N-(5-sulfamoyl-1,3,4-thiadiazol-2-yl)butanamide], the MIC in experiment [1] worked out at 0.25 µg/mL (≈ 0.946 µM); in experiment [2] it was 0.003 µg/mL (≈ 0.0113 µM); in experiment [3], 0.25 µg/mL (≈ 0.946 µM); in experiment [4], 0.25 µg/mL (≈ 0.946 µM); in experiment [5] it was 0.125 µg/mL (≈ 0.473 µM); in experiment [6], 0.25 µg/mL (≈ 0.946 µM). Moreover, the MIC is 0.125 µg/mL (≈ 0.473 µM) in experiment [7] and 0.5 µg/mL (≈ 1.89 µM) in experiment [8].
With `CCCCCCC(=O)Nc1nnc(S(N)(=O)=O)s1` [CAI0027, N-(5-Sulfamoyl-1,3,4-thiadiazol-2-yl)heptanamide], the MIC worked out at 0.015 µg/mL (≈ 0.0513 µM) in experiment [1]; 0.001 µg/mL (≈ 0.00342 µM) in experiment [2]; 0.007 µg/mL (≈ 0.0239 µM) in experiment [3]; 0.007 µg/mL (≈ 0.0239 µM) in experiment [4]; 0.007 µg/mL (≈ 0.0239 µM) in experiment [5]; 0.015 µg/mL (≈ 0.0513 µM) in experiment [6]. Further, the minimum inhibitory concentration (MIC) in experiment [7] and in experiment [8] was 0.015 µg/mL (≈ 0.0513 µM) each time.
Take `CC(C)(C)CC(=O)Nc1nnc(S(N)(=O)=O)s1` [CAI0028, 3,3-Dimethyl-N-(5-sulfamoyl-1,3,4-thiadiazol-2-yl)butanamide]: the MIC in experiment [1] is 0.03 µg/mL (≈ 0.108 µM); in experiment [2], 0.003 µg/mL (≈ 0.0108 µM); in experiment [3], 0.015 µg/mL (≈ 0.0539 µM); in experiment [4] it was 0.03 µg/mL (≈ 0.108 µM); in experiment [5] it was 0.003 µg/mL (≈ 0.0108 µM); in experiment [6] it was 0.03 µg/mL (≈ 0.108 µM). Further, the MIC in experiment [7] was 0.015 µg/mL (≈ 0.0539 µM); in experiment [8], 0.03 µg/mL (≈ 0.108 µM).
On to `NS(=O)(=O)c1nnc(NC(=O)CC2CCCCC2)s1` [CAI0029, 2-Cyclohexyl-N-(5-sulfamoyl-1,3,4-thiadiazol-2-yl)acetamide], for which the MIC in experiment [1] is 0.015 µg/mL (≈ 0.0493 µM); in experiment [2], 0.001 µg/mL (≈ 0.00329 µM); in experiment [3] it was 0.007 µg/mL (≈ 0.023 µM); in experiment [4], 0.015 µg/mL (≈ 0.0493 µM); in experiment [5], 0.03 µg/mL (≈ 0.0986 µM); in experiment [6] it was 0.03 µg/mL (≈ 0.0986 µM). Moreover, the MIC in experiment [7] turned out to be 0.06 µg/mL (≈ 0.197 µM); in experiment [8], 0.015 µg/mL (≈ 0.0493 µM).
